Experimental data: US7410963B2, “Benzo-1,4-diazepin-2-one derivatives as phosphodiesterase PDE2 inhibitors, preparation and therapeutic use thereof” (VIA Pharmaceuticals, Inc., priority 2003, dated 2008)
Where two headings read alike, the source gives them in different places.

How the values were obtained:
PDE3 = experiment: Radioenzymatic phosphodiesterase assay: PDE3 inhibition (selectivity); conditions: Table 2; 10 μM test compound; PDE3 of vascular smooth muscle
Protocol: (§1) 3 g of tunica media from bovine aorta was cut in small piece and homogenized in a glass potter with 7 volumes/weight of buffer A containing protease inhibitors cocktails (20 mM Tris-HCl, 0.25 M saccharose, 2 mM magnesium acetate, 1 mM dithiothreitol, 5 mM EGTA, 2000 U/ml aprotinine, 10 mg/l leupeptine, 10 mg/l of soybean chemotrypsin inhibitor). The homogenate was centrifuged at 875000 g for 1 h and the surpernant was then transferred in DEAE-Sephacel (15×1.6 cm). The column was equilibrated beforehand with a buffer B (buffer A without saccharose, d'EGTA and protease inhibitors). […] Fractions were aliquoted and stored at −80° C. until further use.
(§2) The monophosphated adenosine or guanosine released by the hydrolysis of tritiated cyclic nucleotides was transformed into tritiated adenosine or guanosine by excess of nucleotidase. The obtained nucleoside was separated from nucleotides by anion exchange chromatography. Nucleoside radioactivity was determined by liquid scintillation.
(§3) The phosphodiesterase inhibitory activity of compounds was evaluated on other isoforms of phosphodiesterases such as PDE3, and PDE4 of vascular smooth muscle.

PDE2 = biological target: T1, PDE2 (Bos taurus, UniProt P14099); experiment: Radioenzymatic phosphodiesterase assay: PDE2 inhibition; assay type: biochemical, bovine; conditions: read-out: PDE2 percentage of inhibition at 10 μM
T1 sequence (P14099 1-921): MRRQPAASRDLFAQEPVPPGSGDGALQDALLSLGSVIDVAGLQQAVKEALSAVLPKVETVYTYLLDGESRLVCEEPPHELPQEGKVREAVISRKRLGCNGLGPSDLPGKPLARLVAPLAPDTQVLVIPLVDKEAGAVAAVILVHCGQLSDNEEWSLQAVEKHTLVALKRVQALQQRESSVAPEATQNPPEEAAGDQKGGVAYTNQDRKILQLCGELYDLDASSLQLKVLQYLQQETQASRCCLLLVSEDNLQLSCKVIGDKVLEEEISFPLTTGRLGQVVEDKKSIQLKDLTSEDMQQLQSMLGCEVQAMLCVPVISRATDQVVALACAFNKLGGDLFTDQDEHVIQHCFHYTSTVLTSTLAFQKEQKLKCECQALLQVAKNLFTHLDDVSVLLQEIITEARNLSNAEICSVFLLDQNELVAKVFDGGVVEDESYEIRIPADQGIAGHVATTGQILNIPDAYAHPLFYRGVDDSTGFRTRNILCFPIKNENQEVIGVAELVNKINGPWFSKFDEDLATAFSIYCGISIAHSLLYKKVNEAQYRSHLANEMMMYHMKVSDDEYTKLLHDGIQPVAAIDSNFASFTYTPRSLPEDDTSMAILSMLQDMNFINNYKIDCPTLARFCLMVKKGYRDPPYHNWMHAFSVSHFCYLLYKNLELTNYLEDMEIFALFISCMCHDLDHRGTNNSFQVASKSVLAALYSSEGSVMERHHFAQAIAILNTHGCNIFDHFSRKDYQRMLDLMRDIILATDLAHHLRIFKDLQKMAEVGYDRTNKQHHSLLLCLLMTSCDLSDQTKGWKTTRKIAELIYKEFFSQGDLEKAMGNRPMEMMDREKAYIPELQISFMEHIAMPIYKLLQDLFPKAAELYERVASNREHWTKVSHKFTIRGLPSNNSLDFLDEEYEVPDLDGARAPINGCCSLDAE
Protocol: Nucleoside radioactivity was determined by liquid scintillation.

PDE4 = experiment: Radioenzymatic phosphodiesterase assay: PDE4 inhibition (selectivity); conditions: Table 2, PDE4 of vascular smooth muscle; for PDE4 percentage of inhibition at 10 μM: 10 μM test compound
Protocol: as §1, §2, §3

Compound | PDE3 percentage of inhibition at 10 μM (PDE3) | inhibition at 10 µM (PDE2; Table 1, 10 μM test compound) | PDE4 percentage of inhibition at 10 μM (PDE4) | IC50 (PDE4; read-out: PDE4 IC50) | inhibition at 10 µM (PDE2)
COc1cc2c(cc1-c1c(OC)cccc1OC)C(c1cccc(C(N)=O)c1)=NCC(=O)N2C [Example 92, 3-[7-(2,6-Dimethoxy-phenyl)-8-methoxy-1-methyl-2-oxo-2,3-dihydro-1H-benzo[e][1,4]diazepin-5-yl]-benzamide] | 52% | 97% | 23% |  | 
COc1cccc(OC)c1-c1ccc2c(c1)C(c1cccc(C(N)=O)c1)=NCC(=O)N2C [Example 32, 3-[7-(2,6-Dimethoxy-phenyl)-1-methyl-2-oxo-2,3-dihydro-1H-benzo[e][1,4]diazepin-5-yl]-benzamide] | 0% | 100% | 27% |  | 
COc1ccc(C2=NCC(=O)N(C)c3cc(OC)c(-c4c(OC)cccc4OC)cc32)cc1 [Example 109, 7-(2,6-Dimethoxy-phenyl)-8-methoxy-5-(4-methoxy-phenyl)-1-methyl-1,3-dihydro-benzo[e][1,4]diazepin-2-one] | 37% | 99% | 90% | 1 µM | 
COc1cc2c(cc1-c1ccccc1Cl)C(c1cccc(C(N)=O)c1)=NCC(=O)N2C [Example 23, 3-[7-(2-Chloro-phenyl)-8-methoxy-1-methyl-2-oxo-2,3-dihydro-1H-benzo[e][1,4]diazepin-5-yl]-benzamide] | 25% | 95% | 20% |  | 
COc1cccc(OC)c1-c1ccc2c(c1)C(c1ccc(F)cc1)=NCC(=O)N2C [Example 100, 7-(2,6-Dimethoxy-phenyl)-5-(4-fluoro-phenyl)-1-methyl-1,3-dihydro-benzo[e][1,4]diazepin-2-one] | 0% |  | 77% |  | 96%
COc1ccc(C2=NCC(=O)N(C)c3ccc(-c4c(OC)cccc4OC)cc32)cc1 [Example 75, 7-(2,6-Dimethoxy-phenyl)-5-(4-methoxy-phenyl)-1-methyl-1,3-dihydro-benzo[e][1,4]diazepin-2-one] | 4% | 99% | 78% |  | 
COc1cc2c(cc1-c1ccccc1Oc1ccccc1)C(c1cccc(C(N)=O)c1)=NCC(=O)N2C [Example 93, 3-[8-Methoxy-1-methyl-2-oxo-7-(2-phenoxy-phenyl)-2,3-dihydro-1H-benzo[e][1,4]diazepin-5-yl]-benzamide] | 72% | 98% | 56% |  | 
COc1ccc(OC)c(-c2ccc3c(c2)C(c2cccc(C(N)=O)c2)=NCC(=O)N3C)c1 [Example 31, 3-[7-(2,5-Dimethoxy-phenyl)-1-methyl-2-oxo-2,3-dihydro-1H-benzo[e][1,4]diazepin-5-yl]-benzamide] | 0% | 99% | 25% |  | 
COc1cccc(OC)c1-c1ccc2c(c1)C(c1cccc(C)c1)=NCC(=O)N2C [Example 115, 7-(2,6-Dimethoxy-phenyl)-1-methyl-5-m-tolyl-1,3-dihydro-benzo[e][1,4]diazepin-2-one] | 3% |  | 42% |  | 96%
COc1ccccc1-c1cc2c(cc1Oc1ccccc1)N(C)C(=O)CN=C2c1cccc(C(N)=O)c1 [Example 74, 3-[7-(2-Methoxy-phenyl)-1-methyl-2-oxo-8-phenoxy-2,3-dihydro-1H-benzo[e][1,4]diazepin-5-yl]-benzamide] |  | 98% |  |  | 
CN1C(=O)CN=C(c2cccc(C#N)c2)c2cc(-c3ccco3)ccc21 [Example 52, 3-[7-(Furan-2-yl)-1-methyl-2-oxo-2,3-dihydro-1H-benzo[e][1,4]diazepin-5-yl]-benzonitrile] |  | 78% |  |  | 
COc1ccc(C2=NCC(=O)N(C)c3ccc(-c4c(OC)cccc4OC)cc32)cc1OC [Example 101, 5-(3,4-Dimethoxy-phenyl)-7-(2,6-dimethoxy-phenyl)-1-methyl-1,3-dihydro-benzo[e][1,4]diazepin-2-one] |  |  |  |  | 99%
CCOc1cc2c(cc1-c1ccccc1)C(c1ccccc1)=NCC(=O)N2CC [Example 18, 8-Ethoxy-1-ethyl-5,7-diphenyl-1,3-dihydro-benzo[e][1,4]diazepin-2-one] |  | 27% |  |  | 
COc1cc2c(cc1-c1ccc(F)cc1)C(c1cccc(C#N)c1)=NCC(=O)N2C [Example 2, 3-[7-(4-Fluoro-phenyl)-8-methoxy-1-methyl-2-oxo-2,3-dihydro-1H-benzo[e][1,4]diazepin-5-yl]-benzonitrile] |  |  |  |  | 97%
COc1ccccc1-c1cc2c(cc1OC)N(C)C(=O)CN=C2c1cccc(C(N)=O)c1 [Example 21, 3-[8-Methoxy-7-(2-methoxy-phenyl)-1-methyl-2-oxo-2,3-dihydro-1H-benzo[e][1,4]diazepin-5-yl]-benzamide] | 9% | 98% | 18% |  | 
CN1C(=O)CN=C(c2cccc(C(F)(F)F)c2)c2cc(-c3ccccc3)ccc21 [Example 59, 1-Methyl-7-phenyl-5-(3-trifluoromethyl-phenyl)-1,3-dihydro-benzo[e][1,4]diazepin-2-one] |  | 43% |  |  | 
COc1cc2c(cc1-c1ccccc1Oc1ccccc1)C(c1cccc(C#N)c1)=NCC(=O)N2C [Example 90, 3-[8-Methoxy-1-methyl-2-oxo-7-(2-phenoxy-phenyl)-2,3-dihydro-1H-benzo[e][1,4]diazepin-5-yl]-benzonitrile] |  |  |  |  | 98%
COc1cc2c(cc1-c1ccccc1)C(c1ccc(CCCNC(=O)OC(C)(C)C)cc1)=NCC(=O)N2C [Example 107, {3-[4-(8-Methoxy-1-methyl-2-oxo-7-phenyl-2,3-dihydro-1H-benzo[e][1,4]diazepin-5-yl)-phenyl]-propyl}-carbamic acid tert-butyl ester] |  |  |  |  | 92%
COc1ccccc1-c1cc2c(cc1OC)NC(=O)CN=C2c1cccc(C(N)=O)c1 [Example 36, 3-[8-Methoxy-7-(2-methoxy-phenyl)-2-oxo-2,3-dihydro-1H-benzo[e][1,4]diazepin-5-yl]-benzamide] |  | 94% |  |  | 
COc1cc2c(cc1-c1ccc(C(C)=O)cc1)C(c1cccc(C#N)c1)=NCC(=O)N2C [Example 48, 3-[7-(4-Acetylphenyl)-8-methoxy-1-methyl-2-oxo-2,3-dihydro-1H-benzo[e][1,4]diazepin-5-yl]-benzonitrile] |  |  |  |  | 97%
COc1ccccc1-c1cc2c(cc1OC)N(Cc1ccccc1)C(=O)CN=C2c1cccc(C(N)=O)c1 [Example 44, 3-[1-Benzyl-8-methoxy-7-(2-methoxy-phenyl)-2-oxo-2,3-dihydro-1H-benzo[e][1,4]diazepin-5-yl]-benzamide] |  |  |  |  | 88%
COc1ccc(-c2cc3c(cc2OC)N(C)C(=O)CN=C3c2cccc(C(N)=O)c2)cc1 [Example 22, 3-[8-Methoxy-7-(4-methoxy-phenyl)-1-methyl-2-oxo-2,3-dihydro-1H-benzo[e][1,4]diazepin-5-yl]-benzamide] | 22% | 99% | 50% |  | 
